According to patent US12508275B2, “Neomycin based compounds, and pharmaceutical use thereof” (UNIVERSITÉ COTE D'AZUR, priority 2019, dated 2025):

Legend:
[1] = system: human hepatocytes (HEPRG); assay: XTT toxicity assay on human hepatocytes; type: cell-based
Method: (§1) FIG. 4: Determination of compound toxicity on GSC and normal human cells. (A) GB5 were incubated with growing concentration of Compounds 9a-b and 18a. (B) human normal neural stem cell (NNSC), human normal kidney cells (NHEK), human normal hepatocytes (HEPRG) and (C) human endothelial cells (HUVEC) were treated with growing concentration of Compound 9a. 7 days later, the cells were subjected to an XTT assays as described in the method section. The results are the meaning of at least two separate experiments. Cell death was confirmed by trypan blue staining (not shown).
HepaRG™ are terminally differentiated hepatic cells derived from a human hepatic progenitor cell that retains many characteristics of primary human hepatocytes. HepaRG were grown in William's E Medium supplemented with Tox medium supplement and glutamax.
(§2) V—Toxicity tests: NNSC, GB5, TG6, HEK293, and HepaRG, HUVEC were seeded at 2000 cells/well in 96 wells plate in their respective culture mediums alone or containing growing concentration from 10 to 500 uM of Compounds 9a-b. Cultures were incubated 4 days and the cellular toxicity has been evaluated by XTT assays. Cell viability has been also assessed by counting living and dead cells with trypan blue staining.
XTT assays allows, through cell metabolism measurement, to determine a cytotoxic/cytostatic effects. […]

[2] = system: Patient derived GSC (GB5); assay: Effect of compound treatment on GSC phenotype (adhesion, morphology), GB5; type: cell-based, human; settings: GB5, 10 uM, three days
Source text: FIG. 1: phase contrast images of GB5 morphology untreated (CTL DMSO) or treated with the indicated compound (“Cpd” denotes compound) at the indicated concentration. Control cells grow as non-adherent spheroids composed of numerous GSC. When differentiated the cells become adherent and spread on the culture dish.
B—Cell culture: Patient-derived cells GB5 were isolated from surgical resection of human primary GBM provided by the department of neurosurgery of the University Hospital of Nice. TG6 (patient-derived cell from primary GBM) and HNNSC25 (Human Normal Neural Stem Cells) have been provided by Dr Hervé Chneiweiss, University of Pierre and Marie Curie, Paris. The resulting primary cultures (GB5, TG6, HNNSC25) were grown in NS34+ medium containing EGF and bFGF (DMEM-F12 1/1 ratio, 10 mM glutamine, 10 mM Hepes, 0.025% Sodium bicarbonate, N2, G5, and B27).
Patient derived GSC (GB5) were treated with growing concentration of Compounds 9a-b and 18a-b (10 to 100 uM) during three days). […] Similar results have been obtained with TG6.

human kidney (NHEK) = assay: XTT toxicity assay on human kidney cells; type: cell-based
Method: as §1
HEK293 (human embryonic kidney cell) were grown in DMEM supplemented with glutamax and 10% foetal calf serum.
as §2
XTT assays allows, through cell metabolism measurement, to determine a cytotoxic/cytostatic effects. Compounds 9a-b and 18a were tested for their eventual toxicity by XTT assays as described in the material and method section. […]

GB5 cells = assay: Mitosis: cells positive for histone H3 phosphorylated on ser-10, GB5; type: cell-based, human; settings: GB5, H3-ser10 positive cells
Method: FIG. 2: Compounds 9a-b and 18a-b effect on stemness marker expression, clonal expansion and mitosis in GB5 cells. (A) NESTIN expression was assessed by immunofluorescence in GB5 treated with increasing amount of Compounds 9a-b and 18a. The number of NESTIN positive cells was counted for each treatment and express as percentage of the control (100%). The results are the meaning of at least two separate experiments. […] (C) Clonal expansion analysis was performed with GB5 cells as described in the material and method section. Two and three weeks later, the number of spheroids is counted and reported as percentage of the initial number of cells in the well. The results are the meaning of a minimum of two separate experiments. (D) The number of mitosis in the culture was determined by the detection of the number of cells positive for histone H3 phosphorylated on ser-10 (H3-ser10). H3-ser10 expression was assessed by immunofluorescence in GB5 treated with increasing amount of Compounds 9a-b and 18a. The number of positive cells was counted for each treatment and express as percentage of the control (100%). The results are the meaning of at least two separate experiments.
III—Immunofluorescence assay: TG6 and GB5 were seeded at 2000 cells/well in 24 wells plate in NS34+ alone or containing 5, 7.5, 10, 12.5, 15, 20 and 25 uM of Compounds 9a-b and 18a-b. Cultures were incubated 4 days and the cells were fixed with 4% paraformaldehyde for 10 min at room temperature then washed with PBS. Cells were then incubated with ammonium chloride at 20 mM 5 min at room temperature and washed 5 times with PBS. Blocking and hybridization were realized in PBS containing 10% FCS and 0.1% Triton X100. Anti-Nestin and anti-H3Phospho serine 10 antibodies were incubated 2 hours at room temperature then washed with PBS. Fluorescence coupled secondary antibodies and Hoechst 33342 nuclei counterstaining reagent were hybridized one hour at room temperature. Cells were mounted with anti-fading agent then imaged, counted and quantified using fluorescent microscopy (TiE Nikon) and NiS software (Nikon).
It was further investigated the effects of selected compounds on GSC clonal expansion as well as their capacity of mitosis (FIGS. 2B and C). Compounds 9a-b and 18a treatment altered GSC clonal expansion and mitosis. The most efficient inhibition of clonal expansion was provided by Compound 9a treatment (IC50<10 uM) while both Compounds 9a-b were the most efficient for mitosis inhibition (IC50<10 uM) (FIGS. 2C and D).

[3] = system: OCT4, NANOG, SOX2 expression in GB5; assay: OCT4, NANOG, SOX2 pluripotency marker immunofluorescence in GB5; type: cell-based, human; settings: GB5, 20 uM

In the case of `NCCCCNCCCNC(=O)c1csc(-c2csc(CCNC(=O)CCc3cn(CC4OC(OC5C(O)C(N)CC(N)C5OC5OC(CN)C(O)C(O)C5N)C(O)C4OC4OC(CN)C(O)C(O)C4N)nn3)n2)n1` (centres unmarked) [Compound 9a, N-(3-((4-Aminobutyl)amino)propyl)-2′-(2-(3-(1-methyl-1H-1,2,3-triazol-4-yl)propanamido)ethyl)-[2,4′-bithiazole]-4-carboxamide-neomycin], the “toxicity (XTT)” value ([1]; 100 uM and above) is reported as “toxic”, the “toxicity (XTT)” value ([1]; between 10 to 50 uM) is reported as “not toxic” and the “adhesion and changes in GSC morphology” value [2] is reported as “induced adhesion and changes in GSC morphology”. For the same compound, the “toxicity (XTT)” value (human kidney (NHEK); 100 uM and above) was “toxic”, the “toxicity (XTT)” value (human kidney (NHEK); between 10 to 50 uM) was “not toxic” and the GSC mitosis (GB5 cells) was “altered”. The IC50 (GB5 cells; Homo sapiens, read-out: mitosis inhibition IC50) was less than 10 µM and the “OCT4, NANOG and SOX2 expression” value [3] was “down regulation”.
